No end group written: not given here.
How the values were obtained:
P. aeruginosa PAO1 = type: cell-based, Pseudomonas aeruginosa; conditions: PAO1
Method: (§1) The antimicrobial activity spectrum of the WW peptide series was performed on a panel of Gram-positive and -negative bacteria using the standard broth micro-dilution method with minor modifications as described. […] There was a small change in the case of Pseudomonas aeruginosa and Acinetobacter baumannii up to two-fold. Four-fold changes were found for Staphylococcus aureus, Staphylococcus epidermidis, Escherichia coli, and Bacillus subtilis. However, we observed over eight-fold MIC changes for Klebsiella pneumoniae and vancomycin-resistant enterococcus (VRE). […] We also observed more than eight-fold changes in minimal bacterial killing concentrations.
(§2) The antibacterial activity of peptides was evaluated using a standard broth microdilution protocol with minor modifications as previously described. In brief, logarithmic phase bacterial cultures (i.e., optical density at 600 nm ≈ 0.5) were diluted to OD600~0.001 and partitioned into a 96-well polystyrene microplate at 90 μL per well. After treatment with 10 μL of peptide solutions two-fold diluted to various concentrations, microplates were incubated at 37 °C overnight and read on a ChroMate 4300 Microplate Reader at 630 nm (GMI, Ramsey, MN). […] Minimal bactericidal concentration (MBC) was determined by plating the clear wells at MIC or above. The peptide concentration that caused no bacterial growth on the petri dish is MBC.

[1] = HPLC retention time measurement (reverse-phase C18); type: physicochemical
Method: The retention time of the peptide was measured on a Waters HPLC system equipped with an analytical reverse-phase WATERS C18 column (4.6 × 250 mm). The peptide detected at 220 and 280 nm was eluted with a gradient of acetonitrile (containing 1% TFA) from 5% to 95% at a flow rate of 1 mL/min [22].

B. subtilis 167 = type: cell-based, Bacillus subtilis; conditions: 167
Method: as §1, §2

S. aureus USA300 LAC = assay: Disruption of 24 h established biofilms (XTT); type: cell-based, Staphylococcus aureus; conditions: 12.5 µM, highest concentration tested, 24 h treatment
Method: We also compared the effects of the peptides on established biofilms (24 h). […] When cells are alive (in the absence of peptide), the cell-permeant calcein-AM dye could enter the cells and gave green color as a consequence of the removal of acetoxymethyl (AM) esters by intracellular esterase (Figure 7A). When the cells were dead due to membrane damage by the peptide, the red dye ethidium homodimer (non-membrane permeable) could enter the cell and become red by binding to nucleic acids (Figure 7B).
The antibiofilm activity of the peptide against 24 h established biofilms was evaluated as previously described. In short, S. aureus USA300 LAC (10^5 CFU/mL) was made from exponential phase bacteria in TSB media and 180 μL were distributed to each well of the microtiter plate (Corning Costar Cat No. 3595, Amsterdam, The Netherlands). The plates were incubated at 37 °C for 24 h to form a biofilm. Culture treated with water served as a positive control while media without bacterial inoculation served as the negative control. Media were then pipetted out and the attached biofilms were washed with 1× PBS to remove the planktonic bacteria. Each well of the plate was then filled with 20 μL of 10× peptide solution and 180 μL of fresh TSB media and the plates were further incubated at 37 °C for 24 h. Media were then pipetted out and the wells were washed with 1× PBS to remove planktonic cells. The live cells in biofilms were estimated by XTT assay as mentioned above.

A. baumannii B28-16 = type: cell-based, Acinetobacter baumannii; conditions: B28-16
Method: as §1, §2

RKIWWWWL [WW295]
Minimal Inhibitory Concentration (MIC), PA (P. aeruginosa PAO1): 25 to 50 µM | hydrophobicity implied by retention time (in words) ([1]; reverse-phase HPLC C18): slightly higher hydrophobicity | HPLC (tr, min) ([1]; reverse-phase Waters C18 4.6 × 250 mm, acetonitrile (1% TFA) gradient 5% to 95%, 1 mL/min, detection 220 and 280 nm, taken as measure of hydrophobicity): 12.453 min | Minimal Inhibitory Concentration (MIC), BS (B. subtilis 167): 12.5 µM | disruption of established biofilms (24 h) (S. aureus USA300 LAC): did not disrupt MRSA biofilms significantly | Minimal Inhibitory Concentration (MIC), AB (A. baumannii B28-16): 6.25 to 12.5 µM
